Measurements taken from patent US20200383905A1 (priority 2015, published 2020).
Structures can show the parent of a compound that is named as a salt. Where two headings read alike, the source gives them in different places.

Key:
[1] = mean cumulative doses 449 to 868.3 mg over 24, 36 and 48 h; cited from earlier work
[2] = system: rats and dogs; conditions: repeat-dose; cited from earlier work
[3] = in vivo; cited from earlier work
[4] = cited from earlier work
[5] = Example 5: multiple-dose 3-way crossover PK study of two IV regimens vs 100 mg oral Q6h; conditions: for Cmax: human, plasma, iv, 50 mg, 50 mg IV regimen; for AUCtau 1: first dosing interval
Source text: The term “STD” as used herein means standard deviation. […] The term “Css” means steady-state concentration. The term “Cmax” means maximum concentration. The term “AUC” means area under the curve. […] The term “PIT” means peak to trough.

[6] = Observed steady-state PK of oral tramadol Q6h (threshold PK parameters); conditions: for AUC / Cmax: human, plasma, po
[7] = oral administration; cited from earlier work
[8] = system: experienced opioid abusers; conditions: tramadol 100 and 200 mg IV, cited from earlier work; for Ratings of feel drug effect compared to placebo / Ratings of liking: morphine 10 and 20 mg IV over 5 minutes; for Ratings of feel drug effect compared to placebo: 10 experienced opioid abusers
[9] = system: μ opioid; conditions: animal model; cited from earlier work
[10] = system: animal model; conditions: cited from earlier work
[11] = system: postoperative pain; conditions: IV or IM intermittent injection, dose titrated to pain response; cited from earlier work
[12] = plasma tramadol, 50 mg IV at h 0, 2, 4 then q4h, mean
[13] = plasma tramadol, 75 mg IV at h 0, 3, 6 then q6h, mean
[14] = plasma tramadol, 100 mg oral q6h, mean
[15] = plasma 0-desmethyltramadol, tramadol 50 mg IV at h 0, 2, 4 then q4h, mean
[16] = plasma 0-desmethyltramadol, tramadol 75 mg IV at h 0, 3, 6 then q6h, mean
[17] = plasma 0-desmethyltramadol, tramadol 100 mg oral q6h, mean
[18] = 60 mg oral tramadol dose, by extrapolation
[19] = 100 mg oral tramadol Q6h, steady-state, geometric mean, observed
[20] = 120 mg oral tramadol dose, by extrapolation

COc1cccc([C@]2(O)CCCC[C@H]2CN(C)C)c1 (racemic) [Tramadol, (±)cis-2-[(dimethylamino)methyl]-1-(3-methoxyphenyl) cyclohexanol hydrochloride]
Serious adverse effects [1]: no serious adverse effects were observed
Dose with behavioral/clinical signs and convulsions [2]: > 25 mg/kg/day
Time to reach steady-state [3]: 42 to 48 h
AUC0-24h ([4]; 100 mg i.v.): 3709 ± 977 ng·h/mL
Vd ([4]; 100 mg i.v.): 203 L
t1/2 ([4]; 100 mg i.v.): 5.2 h
AUC0-24h ([4]; 100 mg p.o.): 2488 ± 774 ng·h/mL
Cmax ([4]; 100 mg p.o.): 280 ± 49 ng/mL
Vd ([4]; 100 mg p.o.): 306 L
Distribution half-life, initial phase ([4]; IV administration): 0.31 ± 0.17 h
Half-life of slower distribution phase ([4]; IV administration): 1.7 ± 0.4 h
Absolute bioavailability with continuous dosing ([4]; oral, continuous dosing (Liao 1992)): 90-100%
Cmax ([5]; Mean Cmax after the first dose, plasma tramadol): ~273 ng/mL
Cmax ([5]; Mean Cmax after the second dose, plasma tramadol): ~451 ng/mL
Cmax ([5]; Mean Cmax concentration after the third administered dose, plasma tramadol): ~666 ng/mL
C48 [5, 12]: 448 ng/mL
Cmax(2-4) [5, 12]: 479 ng/mL
P/T Ratio First [5, 12]: 1.4566
P/T Ratio Last [5, 12]: 1.6370
C48 [5, 13]: 354 ng/mL
P/T Ratio First [5, 13]: 2.0658
P/T Ratio Last [5, 13]: 2.3692
C48 [5, 14]: 497 ng/mL
P/T Ratio First [5, 14]: 1.9824
P/T Ratio Last [5, 14]: 1.4400
AUC ([6]; 50 mg): 1640 ng·h/mL
Cmax ([6]; 50 mg): 340 ng/mL
Cmax ([6]; 60 mg): 408 ng/mL
AUC ([6]; 100 mg): 3230 ng·h/mL
Cmax ([6]; 100 mg): 676 ng/mL
AUC ([6]; 120 mg): 3880 ng·h/mL
Cmax ([6]; 120 mg): 811 ng/mL
Fertility or teratogenic effects [7]: no safety concerns with respect to fertility or teratogenic effects
Ratings of feel drug effect compared to placebo [8]: significantly increased ratings
Ratings of liking [8]: neither dose of tramadol increased ratings

CN(C)C[C@H]1CCCC[C@]1(O)c1cccc(O)c1 [M1, 0-desmethyltramadol]
AUCtau 1 [5, 15]: 39.93 ng·h/mL
AUCtau n ([5]; plasma 0-desmethyltramadol, tramadol 50 mg IV at h 0, 2, 4 then q4h, last dosing interval, mean): 355.6 ng·h/mL
C48 [5, 15]: 81.7 ng/mL
AUCtau 1 [5, 16]: 108.3 ng·h/mL
C48 [5, 16]: 75.9 ng/mL
AUCtau 1 [5, 17]: 272.1 ng·h/mL
C48 [5, 17]: 111 ng/mL
Cmax(42-48) ([5]; plasma 0-desmethyltramadol, tramadol 100 mg oral q6h, steady-state, mean): about 146 ng/mL
Potency in μ opioid binding, times more potent than the parent compound [9]: 200 times
M1 AUC6 ([6]; 50 mg oral tramadol dose): 491 ng·h/mL
M1 Cmax ([6]; 50 mg oral tramadol dose): 96 ng/mL
M1 AUC6 [6, 18]: 589 ng·h/mL
M1 Cmax [6, 18]: 115 ng/mL
M1 AUC6 [6, 19]: 668 ng·h/mL
M1 Cmax [6, 19]: 125 ng/mL
M1 AUC6 [6, 20]: 802 ng·h/mL
M1 Cmax [6, 20]: 150 ng/mL
Potency in producing analgesia, times more potent than the parent compound [10]: 6 times

CN1CC[C@]23c4c5ccc(O)c4O[C@H]2[C@@H](O)C=C[C@H]3[C@H]1C5 [morphine]
Reduction of pain intensity after 4 to 6 hours [11]: 69.8%
Ratings on the ARCI-MBG scale ([8]; morphine 20 mg IV over 5 minutes): increased ratings on the ARCI-MBG scale
Ratings of feel drug effect compared to placebo [8]: significantly increased ratings
Ratings of liking [8]: significantly increased ratings
